Measurements from patent publication US12522583B2, “Benzimidazole derivatives and aza-benzimidazole derivatives as Janus kinase 2 inhibitors and uses thereof” (Dana-Farber Cancer Institute, Inc., priority 2018, dated 2026).

Assays:
KIT(D816V) = KIT(D816V) (Homo sapiens (Human), UniProt P10721, D816V); assay: KINOMEscan; type: binding; conditions: read-out: percent control
Source text: (§1) Example 2. In Vitro Kinase Selectivity Profiling of the Compounds of the Present Disclosure

MST3 = MST3 (Homo sapiens (Human), UniProt Q9Y6E0); assay: KINOMEscan; type: binding; conditions: read-out: percent control
Source text: as §1

BRSK1 = BRSK1 (Homo sapiens (Human), UniProt Q8TDC3); assay: KINOMEscan; type: binding; conditions: read-out: percent control
Source text: as §1

NEK11 = NEK11 (Homo sapiens (Human), UniProt Q8NG66); assay: KINOMEscan; type: binding; conditions: read-out: percent control
Source text: as §1

RIOK2 = RIOK2 (Homo sapiens (Human), UniProt Q9BVS4); assay: KINOMEscan; type: binding; conditions: read-out: percent control
Source text: as §1

SBK1 = SBK1 (Homo sapiens (Human), UniProt Q52WX2); assay: KINOMEscan; type: binding; conditions: read-out: percent control
Source text: as §1

[1] = biological target: EGFR(L747-S752del, P753S) (Homo sapiens (Human), UniProt P00533, DEL747-752/P753S); assay: KINOMEscan; type: binding; conditions: read-out: percent control
Source text: as §1

PAK1 = PAK1 (Homo sapiens (Human), UniProt Q13153); assay: KINOMEscan; type: binding; conditions: read-out: percent control
Source text: as §1

PKN2 = PKN2 (Homo sapiens (Human), UniProt Q16513); assay: KINOMEscan; type: binding; conditions: read-out: percent control
Source text: as §1

MEK5 = MEK5 (Homo sapiens (Human), UniProt Q13163); assay: KINOMEscan; type: binding; conditions: read-out: percent control
Source text: as §1

SLK = SLK (Homo sapiens (Human), UniProt Q9H2G2); assay: KINOMEscan; type: binding; conditions: read-out: percent control
Source text: as §1

CTK = CTK (Homo sapiens (Human), UniProt P42679); assay: KINOMEscan; type: binding; conditions: read-out: percent control
Source text: as §1

ERBB2 = ERBB2 (Homo sapiens (Human), UniProt P04626); assay: KINOMEscan; type: binding; conditions: read-out: percent control
Source text: as §1

MYO3A = MYO3A (Homo sapiens (Human), UniProt Q8NEV4); assay: KINOMEscan; type: binding; conditions: read-out: percent control
Source text: as §1

DRAK1 = DRAK1 (Homo sapiens (Human), UniProt Q9UEE5); assay: KINOMEscan; type: binding; conditions: read-out: percent control
Source text: as §1

CAMK1G = CAMK1G (Homo sapiens (Human), UniProt Q96NX5); assay: KINOMEscan; type: binding; conditions: read-out: percent control
Source text: as §1

PCTK3 = PCTK3 (Homo sapiens (Human), UniProt Q07002); assay: KINOMEscan; type: binding; conditions: read-out: percent control
Source text: as §1

AURKC = AURKC (Homo sapiens (Human), UniProt Q9UQB9); assay: KINOMEscan; type: binding; conditions: read-out: percent control
Source text: as §1

EPHB4 = EPHB4 (Homo sapiens (Human), UniProt P54760); assay: KINOMEscan; type: binding; conditions: read-out: percent control
Source text: as §1

p38-beta = p38-beta (Homo sapiens (Human), UniProt Q15759); assay: KINOMEscan; type: binding; conditions: read-out: percent control
Source text: as §1

AMPK-alpha1 = AMPK-alpha1 (Homo sapiens (Human), UniProt Q13131); assay: KINOMEscan; type: binding; conditions: read-out: percent control
Source text: as §1

MARK2 = MARK2 (Homo sapiens (Human), UniProt Q7KZI7); assay: KINOMEscan; type: binding; conditions: read-out: percent control
Source text: as §1

PYK2 = PYK2 (Homo sapiens (Human), UniProt Q14289); assay: KINOMEscan; type: binding; conditions: read-out: percent control
Source text: as §1

MLK1 = MLK1 (Homo sapiens (Human), UniProt P80192); assay: KINOMEscan; type: binding; conditions: read-out: percent control
Source text: as §1

RET(V804L) = RET(V804L) (Homo sapiens (Human), UniProt P07949, V804L); assay: KINOMEscan; type: binding; conditions: read-out: percent control
Source text: as §1

JAK2 = JAK2 (Homo sapiens (Human), UniProt O60674); assay: JAK2 Z-Lyte biochemical assay
Procedure: Example 3. JAK2 Z-Lyte Biochemical Assay of the Compounds of the Present Disclosure
The JAK2 Z-Lyte biochemical assay was performed according to manufacturer's instructions (Life Technologies).

Chain of KIT(D816V) (P10721 26-976 D816V): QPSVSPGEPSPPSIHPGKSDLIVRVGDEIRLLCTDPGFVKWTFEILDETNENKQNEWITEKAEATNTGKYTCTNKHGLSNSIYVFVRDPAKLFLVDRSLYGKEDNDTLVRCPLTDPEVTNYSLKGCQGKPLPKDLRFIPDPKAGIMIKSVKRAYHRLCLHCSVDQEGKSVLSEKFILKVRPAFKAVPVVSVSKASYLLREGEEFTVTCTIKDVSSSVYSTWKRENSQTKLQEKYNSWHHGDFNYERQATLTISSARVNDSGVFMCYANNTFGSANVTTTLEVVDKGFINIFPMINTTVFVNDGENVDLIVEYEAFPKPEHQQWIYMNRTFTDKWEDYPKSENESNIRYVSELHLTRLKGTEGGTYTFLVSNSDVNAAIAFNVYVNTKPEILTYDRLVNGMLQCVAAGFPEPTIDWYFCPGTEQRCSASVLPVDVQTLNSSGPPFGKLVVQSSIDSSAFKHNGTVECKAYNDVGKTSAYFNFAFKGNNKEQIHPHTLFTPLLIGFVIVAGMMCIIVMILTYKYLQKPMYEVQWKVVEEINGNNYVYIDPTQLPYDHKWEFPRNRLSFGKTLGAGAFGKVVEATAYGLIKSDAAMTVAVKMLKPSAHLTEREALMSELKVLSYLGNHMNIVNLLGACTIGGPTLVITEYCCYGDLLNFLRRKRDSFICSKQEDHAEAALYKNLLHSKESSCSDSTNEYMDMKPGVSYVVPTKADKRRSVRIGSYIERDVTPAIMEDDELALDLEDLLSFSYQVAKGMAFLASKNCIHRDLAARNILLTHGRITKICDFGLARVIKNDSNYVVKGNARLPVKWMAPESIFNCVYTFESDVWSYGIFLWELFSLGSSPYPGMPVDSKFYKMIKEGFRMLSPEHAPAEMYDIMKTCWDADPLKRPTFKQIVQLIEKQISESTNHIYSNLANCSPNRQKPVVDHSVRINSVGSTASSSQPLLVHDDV
Chain of CAMK1G (Q96NX5 whole entry): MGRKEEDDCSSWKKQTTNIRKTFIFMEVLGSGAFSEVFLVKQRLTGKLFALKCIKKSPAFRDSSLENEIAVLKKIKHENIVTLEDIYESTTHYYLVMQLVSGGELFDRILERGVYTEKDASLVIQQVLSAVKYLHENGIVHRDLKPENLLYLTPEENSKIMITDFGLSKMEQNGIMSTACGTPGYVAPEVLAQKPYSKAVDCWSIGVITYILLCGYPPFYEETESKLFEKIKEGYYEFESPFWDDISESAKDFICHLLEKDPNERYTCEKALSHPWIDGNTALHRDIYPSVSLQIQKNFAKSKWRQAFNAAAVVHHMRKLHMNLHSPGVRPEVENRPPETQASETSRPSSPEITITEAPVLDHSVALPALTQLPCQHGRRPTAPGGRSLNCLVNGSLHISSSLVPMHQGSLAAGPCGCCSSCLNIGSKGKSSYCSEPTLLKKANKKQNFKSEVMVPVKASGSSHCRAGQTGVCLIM
Chain of RET(V804L) (P07949 29-1114 V804L): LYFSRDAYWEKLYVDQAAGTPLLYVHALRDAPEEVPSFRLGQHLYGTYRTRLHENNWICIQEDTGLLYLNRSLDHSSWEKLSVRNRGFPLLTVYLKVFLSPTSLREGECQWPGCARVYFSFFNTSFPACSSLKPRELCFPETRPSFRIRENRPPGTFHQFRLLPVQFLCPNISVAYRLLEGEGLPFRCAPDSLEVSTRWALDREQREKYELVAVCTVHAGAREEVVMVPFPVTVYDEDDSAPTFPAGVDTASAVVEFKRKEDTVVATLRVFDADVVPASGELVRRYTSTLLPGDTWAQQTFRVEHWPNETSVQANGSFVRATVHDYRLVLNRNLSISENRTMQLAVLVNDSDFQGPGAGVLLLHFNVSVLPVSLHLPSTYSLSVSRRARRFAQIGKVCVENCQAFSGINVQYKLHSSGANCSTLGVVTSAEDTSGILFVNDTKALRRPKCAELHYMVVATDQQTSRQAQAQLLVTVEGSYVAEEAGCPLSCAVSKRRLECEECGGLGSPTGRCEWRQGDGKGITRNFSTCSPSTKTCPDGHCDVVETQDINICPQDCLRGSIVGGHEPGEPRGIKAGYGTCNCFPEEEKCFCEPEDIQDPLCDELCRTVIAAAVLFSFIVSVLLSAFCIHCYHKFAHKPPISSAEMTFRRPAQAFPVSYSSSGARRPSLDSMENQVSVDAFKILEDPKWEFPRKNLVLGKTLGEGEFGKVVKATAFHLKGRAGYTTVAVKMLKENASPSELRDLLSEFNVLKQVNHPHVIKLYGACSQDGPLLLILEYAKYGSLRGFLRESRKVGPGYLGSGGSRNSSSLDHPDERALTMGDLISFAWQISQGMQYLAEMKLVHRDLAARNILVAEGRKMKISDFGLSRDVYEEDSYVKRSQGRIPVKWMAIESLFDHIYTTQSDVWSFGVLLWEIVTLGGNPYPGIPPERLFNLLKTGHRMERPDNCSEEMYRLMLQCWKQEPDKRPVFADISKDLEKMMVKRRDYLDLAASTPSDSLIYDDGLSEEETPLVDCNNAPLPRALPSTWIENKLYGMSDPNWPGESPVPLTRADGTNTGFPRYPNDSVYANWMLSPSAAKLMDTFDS
Chain of RIOK2 (Q9BVS4 whole entry): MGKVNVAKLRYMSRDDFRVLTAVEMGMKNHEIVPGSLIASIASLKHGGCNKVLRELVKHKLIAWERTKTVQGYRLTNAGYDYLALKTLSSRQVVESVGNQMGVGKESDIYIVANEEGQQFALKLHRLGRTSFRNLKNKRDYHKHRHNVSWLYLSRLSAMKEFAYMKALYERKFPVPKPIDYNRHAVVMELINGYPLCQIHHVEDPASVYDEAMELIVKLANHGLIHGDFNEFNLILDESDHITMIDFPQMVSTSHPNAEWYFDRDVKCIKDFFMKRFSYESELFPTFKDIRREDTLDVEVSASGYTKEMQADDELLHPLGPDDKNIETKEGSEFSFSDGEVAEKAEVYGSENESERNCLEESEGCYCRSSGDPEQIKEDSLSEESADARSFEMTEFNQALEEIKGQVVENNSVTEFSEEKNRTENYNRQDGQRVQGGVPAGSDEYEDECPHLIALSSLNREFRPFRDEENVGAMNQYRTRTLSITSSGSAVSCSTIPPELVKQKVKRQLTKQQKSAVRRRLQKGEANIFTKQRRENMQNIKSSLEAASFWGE
Chain of PAK1 (Q13153 whole entry): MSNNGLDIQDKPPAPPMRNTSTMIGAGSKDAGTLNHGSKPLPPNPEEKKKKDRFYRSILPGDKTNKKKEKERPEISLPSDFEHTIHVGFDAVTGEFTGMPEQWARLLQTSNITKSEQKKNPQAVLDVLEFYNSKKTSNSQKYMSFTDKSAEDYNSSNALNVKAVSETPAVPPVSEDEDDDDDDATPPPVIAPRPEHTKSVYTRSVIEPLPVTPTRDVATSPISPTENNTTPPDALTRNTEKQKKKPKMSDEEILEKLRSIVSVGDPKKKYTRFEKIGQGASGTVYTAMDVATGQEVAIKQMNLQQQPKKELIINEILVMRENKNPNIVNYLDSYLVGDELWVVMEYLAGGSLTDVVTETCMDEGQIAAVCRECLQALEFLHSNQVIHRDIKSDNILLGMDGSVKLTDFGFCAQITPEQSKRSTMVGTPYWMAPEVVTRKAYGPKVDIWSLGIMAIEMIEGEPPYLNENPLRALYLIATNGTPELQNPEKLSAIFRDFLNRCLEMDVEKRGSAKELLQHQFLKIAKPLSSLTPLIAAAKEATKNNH
Chain of EGFR(L747-S752del, P753S) (P00533 other isoform, or with tags, fused parts or gaps P753S/del L747-S752): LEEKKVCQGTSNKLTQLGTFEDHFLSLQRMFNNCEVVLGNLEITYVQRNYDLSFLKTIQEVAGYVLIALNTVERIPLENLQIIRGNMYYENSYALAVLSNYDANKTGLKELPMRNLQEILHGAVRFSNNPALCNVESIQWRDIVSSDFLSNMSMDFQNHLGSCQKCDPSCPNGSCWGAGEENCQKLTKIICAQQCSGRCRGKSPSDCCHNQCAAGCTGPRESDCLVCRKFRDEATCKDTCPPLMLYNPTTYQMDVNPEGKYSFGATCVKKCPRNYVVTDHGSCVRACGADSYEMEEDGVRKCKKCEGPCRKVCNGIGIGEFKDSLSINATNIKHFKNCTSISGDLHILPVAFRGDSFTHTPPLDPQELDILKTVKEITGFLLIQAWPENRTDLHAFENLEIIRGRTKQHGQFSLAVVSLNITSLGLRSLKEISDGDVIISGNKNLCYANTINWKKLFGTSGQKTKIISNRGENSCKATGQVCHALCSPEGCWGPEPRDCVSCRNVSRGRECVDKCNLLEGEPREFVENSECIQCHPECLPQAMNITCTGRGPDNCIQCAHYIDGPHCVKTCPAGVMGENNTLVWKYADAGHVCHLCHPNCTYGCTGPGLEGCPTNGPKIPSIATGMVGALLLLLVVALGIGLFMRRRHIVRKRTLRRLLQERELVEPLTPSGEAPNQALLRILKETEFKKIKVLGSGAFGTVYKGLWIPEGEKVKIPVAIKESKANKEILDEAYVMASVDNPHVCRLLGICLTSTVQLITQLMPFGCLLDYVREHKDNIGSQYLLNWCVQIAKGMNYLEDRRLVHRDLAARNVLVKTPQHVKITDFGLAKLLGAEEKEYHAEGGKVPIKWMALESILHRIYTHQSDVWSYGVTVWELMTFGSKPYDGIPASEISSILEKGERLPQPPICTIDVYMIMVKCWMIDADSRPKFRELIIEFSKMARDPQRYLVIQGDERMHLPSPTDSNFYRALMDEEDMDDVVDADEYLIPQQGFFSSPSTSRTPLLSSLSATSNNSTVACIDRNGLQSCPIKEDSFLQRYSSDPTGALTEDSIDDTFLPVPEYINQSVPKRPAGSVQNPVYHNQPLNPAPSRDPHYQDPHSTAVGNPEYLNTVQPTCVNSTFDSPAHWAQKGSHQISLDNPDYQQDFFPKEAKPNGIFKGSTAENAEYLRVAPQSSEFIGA

Question: With `CCN1CCN(Cc2ccc(Nc3nc4ccc(Oc5ccnc(NC(C)=O)c5)cc4n3C)cc2C(F)(F)F)CC1` [Compound I-2] as the molecule, how does the remaining binding at 1 µM (KIT(D816V)) read?
Answer: 56%

Question: What about the remaining binding at 1 µM (MST3) of the same molecule?
Answer: 94%

Question: And the remaining binding at 1 µM (BRSK1)?
Answer: 100%

Question: And the remaining binding at 1 µM (NEK11)?
Answer: 100%

Question: And the remaining binding at 1 µM (RIOK2)?
Answer: 51%

Question: What about the remaining binding at 1 µM (SBK1) of the same molecule?
Answer: 84%

Question: What about the remaining binding at 1 µM [1] of the same molecule?
Answer: 80%

Question: What about the remaining binding at 1 µM (PAK1) of the same molecule?
Answer: 88%

Question: What about the remaining binding at 1 µM (PKN2) of the same molecule?
Answer: 100%

Question: And the remaining binding at 1 µM (MEK5)?
Answer: 59%

Question: What about the remaining binding at 1 µM (SLK) of the same molecule?
Answer: 81%

Question: And the remaining binding at 1 µM (CTK)?
Answer: 83%

Question: And the remaining binding at 1 µM (ERBB2)?
Answer: 95%

Question: What about the remaining binding at 1 µM (MYO3A) of the same molecule?
Answer: 96%

Question: And the remaining binding at 1 µM (DRAK1)?
Answer: 100%

Question: And the remaining binding at 1 µM (CAMK1G)?
Answer: 100%

Question: What about the remaining binding at 1 µM (PCTK3) of the same molecule?
Answer: 78%

Question: And the remaining binding at 1 µM (AURKC)?
Answer: 19%

Question: And the remaining binding at 1 µM (EPHB4)?
Answer: 100%

Question: What about the remaining binding at 1 µM (p38-beta) of the same molecule?
Answer: 100%

Question: What about the remaining binding at 1 µM (AMPK-alpha1) of the same molecule?
Answer: 93%

Question: And the remaining binding at 1 µM (MARK2)?
Answer: 100%

Question: What about the remaining binding at 1 µM (PYK2) of the same molecule?
Answer: 33%

Question: What about the remaining binding at 1 µM (MLK1) of the same molecule?
Answer: 100%

Question: What about the remaining binding at 1 µM (RET(V804L)) of the same molecule?
Answer: 15%

Question: What about the IC50 (JAK2) of the same molecule?
Answer: 794 nM

Question: `CCN1CCN(Cc2ccc(Nc3nc4ccc(Oc5ccnc(NC(C)=O)c5)c(C)c4n3C)cc2C(F)(F)F)CC1` [Compound I-6, N-(4-(2-(4-((4-ethylpiperazin-1-yl)methyl)-3-(trifluoromethyl)phenylamino)-1,7-dimethyl-1H-benzo[d]imidazol-6-yloxy)pyridin-2-yl)acetamide] was tested. Which remaining binding at 1 µM (KIT(D816V)) did it give?
Answer: 50%

Question: And the remaining binding at 1 µM (MST3)?
Answer: 90%

Question: And the remaining binding at 1 µM (BRSK1)?
Answer: 100%

Question: What about the remaining binding at 1 µM (NEK11) of the same molecule?
Answer: 61%

Question: And the remaining binding at 1 µM (RIOK2)?
Answer: 96%

Question: And the remaining binding at 1 µM (SBK1)?
Answer: 89%

Question: What about the remaining binding at 1 µM [1] of the same molecule?
Answer: 94%

Question: And the remaining binding at 1 µM (PAK1)?
Answer: 77%

Question: What about the remaining binding at 1 µM (PKN2) of the same molecule?
Answer: 93%

Question: What about the remaining binding at 1 µM (MEK5) of the same molecule?
Answer: 34%

Question: And the remaining binding at 1 µM (SLK)?
Answer: 55%

Question: And the remaining binding at 1 µM (CTK)?
Answer: 90%

Question: What about the remaining binding at 1 µM (ERBB2) of the same molecule?
Answer: 100%

Question: What about the remaining binding at 1 µM (MYO3A) of the same molecule?
Answer: 99%

Question: What about the remaining binding at 1 µM (DRAK1) of the same molecule?
Answer: 99%

Question: What about the remaining binding at 1 µM (CAMK1G) of the same molecule?
Answer: 99%

Question: What about the remaining binding at 1 µM (PCTK3) of the same molecule?
Answer: 76%

Question: What about the remaining binding at 1 µM (AURKC) of the same molecule?
Answer: 70%

Question: And the remaining binding at 1 µM (EPHB4)?
Answer: 90%

Question: And the remaining binding at 1 µM (p38-beta)?
Answer: 94%

Question: And the remaining binding at 1 µM (AMPK-alpha1)?
Answer: 95%

Question: What about the remaining binding at 1 µM (MARK2) of the same molecule?
Answer: 100%

Question: And the remaining binding at 1 µM (PYK2)?
Answer: 8.8%

Question: What about the remaining binding at 1 µM (MLK1) of the same molecule?
Answer: 100%

Question: And the remaining binding at 1 µM (RET(V804L))?
Answer: 7.8%

Question: And the IC50 (JAK2)?
Answer: 980 nM
